The values that follow come from paper PMC3375280 (PLoS ONE, 2012).

SMILES strings stand for the structures. Residue numbers refer to the chain shown, from its start.

Assay [1] deals with T1, AT1 C76A/F110C/C289A mutant receptor (Rattus norvegicus, UniProt P25095, C289A/C76A/F110C).
T1 construct: expressed in transfected cells; host or cells: COS1
T1 sequence (P25095 1-359 C76A/F110C/C289A): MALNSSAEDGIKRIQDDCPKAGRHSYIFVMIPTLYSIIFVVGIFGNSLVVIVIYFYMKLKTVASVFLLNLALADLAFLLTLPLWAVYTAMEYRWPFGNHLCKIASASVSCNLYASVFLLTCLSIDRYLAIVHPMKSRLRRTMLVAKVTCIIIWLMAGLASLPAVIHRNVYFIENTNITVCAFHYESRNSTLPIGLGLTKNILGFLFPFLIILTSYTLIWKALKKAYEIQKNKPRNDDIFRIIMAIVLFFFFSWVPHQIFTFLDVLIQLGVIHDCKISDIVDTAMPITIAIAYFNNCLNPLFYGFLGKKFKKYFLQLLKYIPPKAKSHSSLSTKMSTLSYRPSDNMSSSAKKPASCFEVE
Briefly: competition binding, C76A/F110C/C289A mutant. As to conditions: for Kd ratio relative to WT (in parentheses): C76A/F110C/C289A / WT; for Kd: C76A/F110C/C289A, COS1 membranes, read-out: Binding affinity (Kd). The protocol: (§1) The Kd and Bmax values of receptor binding were determined by ^125I-[Sar^1, Ile^8] […] Membranes expressing the WT or mutant AT1 receptors were incubated with 100 pM ^125I-[Sar^1, Ile^8] […] The binding reaction was terminated by filtering the incubation mixture through Whatman GF/C glass filters, and the residues were extensively washed further with binding buffer. The bound ligand fraction was determined from the counts per minute (cpm) remaining on the membrane. Binding kinetics values were determined as previously described.

The target in assay [2] is T2, AT1 Y113A mutant receptor (Rattus norvegicus, UniProt P25095, Y113A).
T2 construct: expressed in transfected cells; host or cells: COS1
T2 sequence (P25095 1-359 Y113A): T1 sequence (P25095 1-359 C76A/F110C/C289A) with A76C, C110F, Y113A, A289C
In words: competition binding, Y113A mutant. As to conditions: for Kd ratio relative to WT (in parentheses): Y113A / WT; for Kd: Y113A, COS1 membranes, read-out: Binding affinity (Kd). The protocol: as §1

Assay [3] deals with T3, AT1 C76A/S107C/C289A mutant receptor (Rattus norvegicus, UniProt P25095, C289A/C76A/S107C).
T3 construct: expressed in transfected cells; host or cells: COS1
T3 sequence (P25095 1-359 C76A/S107C/C289A): T1 sequence (P25095 1-359 C76A/F110C/C289A) with S107C, C110F
Briefly: competition binding, C76A/S107C/C289A mutant. As to conditions: for Kd ratio relative to WT (in parentheses): C76A/S107C/C289A / WT; for Kd: C76A/S107C/C289A, COS1 membranes, read-out: Binding affinity (Kd). The protocol: as §1

Assay [4] addresses T4, AT1 A114G mutant receptor (Rattus norvegicus, UniProt P25095, A114G).
T4 construct: expressed in transfected cells; host or cells: COS1
T4 sequence (P25095 1-359 A114G): T1 sequence (P25095 1-359 C76A/F110C/C289A) with A76C, C110F, A114G, A289C
Briefly: competition binding, A114G mutant. The following applies: for Kd ratio relative to WT (in parentheses): A114G / WT; for Kd: A114G, COS1 membranes, read-out: Binding affinity (Kd). The protocol:
as §1

Assay [5] concerns the target T5, AT1 S115A mutant receptor (Rattus norvegicus, UniProt P25095, S115A).
T5 construct: expressed in transfected cells; host or cells: COS1
T5 sequence (P25095 1-359 S115A): T1 sequence (P25095 1-359 C76A/F110C/C289A) with A76C, C110F, S115A, A289C
In words: competition binding, S115A mutant. As to conditions: for Kd ratio relative to WT (in parentheses): S115A / WT; for Kd: S115A, COS1 membranes, read-out: Binding affinity (Kd). The protocol: as §1

Assay [6] has as its target T6, AT1 C76A/S115C/C289A mutant receptor (Rattus norvegicus, UniProt P25095, C289A/C76A/S115C).
T6 construct: expressed in transfected cells; host or cells: COS1 cells (membranes)
T6 sequence (P25095 1-359 C76A/S115C/C289A): T1 sequence (P25095 1-359 C76A/F110C/C289A) with C110F, S115C
In words: competition binding, C76A/S115C/C289A mutant. The following applies: for Kd ratio relative to WT (in parentheses): C76A/S115C/C289A / WT; for Kd: C76A/S115C/C289A, COS1 membranes, read-out: Binding affinity (Kd). The protocol:
as §1

The Kd is the concentration at which binding is half-saturated. Consider `CCCc1nc(C(C)(C)O)c(C(=O)O)n1Cc1ccc(-c2ccccc2-c2nnn[nH]2)cc1` [Olmesartan, olmesartan, reference compound], for which the “Kd ratio relative to WT (in parentheses)” value in assay [1] was 2.9 fold; in assay [2] it was 5.2 fold; in assay [3], 2.7 fold; in assay [4], 1.7 fold; in assay [5], 1.3 fold; in assay [6], 2.8 fold. Further, the dissociation constant Kd was determined as 6.6 ± 2.4 nM in assay [1]; 12 ± 3 nM in assay [2]; 6.2 ± 3.2 nM in assay [3]; 4 ± 1.4 nM in assay [4]; 3.1 ± 1.7 nM in assay [5]; 6.5 ± 1.8 nM in assay [6].

As for `CCCc1nc(C(C)(C)O)c(C(N)=O)n1Cc1ccc(-c2ccccc2-c2nnn[nH]2)cc1` [R239470], the “Kd ratio relative to WT (in parentheses)” value amounted to 3.0 fold in assay [1]; 183 fold in assay [2]; 2.3 fold in assay [3]; 1.4 fold in assay [4]; 1.6 fold in assay [5]; 5.3 fold in assay [6]. Besides, the Kd came to 2.4 ± 1.1 nM in assay [1]; 146 ± 15 nM in assay [2]; 1.8 ± 0.4 nM in assay [3]; 1.1 ± 0.1 nM in assay [4]; 1.3 ± 0.4 nM in assay [5]; 4.2 ± 1.6 nM in assay [6].

Turning to `CCCc1nc(C(C)(C)O)c(C(N)=O)n1Cc1ccc(-c2cc(Cc3ccc(O)cc3)ccc2-c2nnn[nH]2)cc1` [R794847], the “Kd ratio relative to WT (in parentheses)” value in assay [1] worked out at 2.6 fold; in assay [2], 38 fold; in assay [3], 2.1 fold; in assay [4], 3.8 fold; in assay [5], 3.1 fold; in assay [6], 14 fold. The Kd in assay [1] was 126 ± 13 nM; in assay [2], 1800 ± 205 nM; in assay [3], 102 ± 19 nM; in assay [4], 183 ± 17 nM; in assay [5], 150 ± 41 nM; in assay [6] it was 657 ± 114 nM.
